Data taken from ChEMBL document CHEMBL5241058, “Pyrazole-based analogs as potential antibacterial agents against methicillin-resistance staphylococcus aureus (MRSA) and its SAR elucidation” (Eur J Med Chem, 2021).
Converted amounts (≈) assume the structure as drawn. “And” between values parts separate entries of the source, which are not always exact repeats. Equal values may be shown once. One block for each compound: values may come before it.

Legend:
Assay type in all cases: functional
[1] = system: Pseudomonas aeruginosa; assay: Antimicrobial activity against Pseudomonas aeruginosa ATCC 27853 assessed as bacterial growth inhibition incubated for 18 hrs by microdilution method
[2] = system: Staphylococcus aureus; assay: Antimicrobial activity against Methicillin-resistant Staphylococcus aureus ATCC BAA 1683 assessed as bacterial growth inhibition incubated for 18 hrs by microdilution method
[3] = system: Klebsiella pneumoniae; assay: Antimicrobial activity against Klebsiella pneumoniae ATCC 314588 assessed as bacterial growth inhibition incubated for 18 hrs by microdilution method
[4] = system: Salmonella enterica subsp. enterica; assay: Antimicrobial activity against Salmonella typhimurium […] assessed as bacterial growth inhibition incubated for 18 hrs by microdilution method
[5] = system: Escherichia coli; assay: Antimicrobial activity against Escherichia coli ATCC 8739 assessed as bacterial growth inhibition incubated for 18 hrs by microdilution method
[6] = system: Staphylococcus aureus; assay: Antimicrobial activity against Methicillin-resistant Staphylococcus aureus ATCC 3167 assessed as bacterial growth inhibition
[7] = system: Staphylococcus aureus; assay: Antimicrobial activity against Methicillin-resistant Staphylococcus aureus BFSA48 assessed as bacterial growth inhibition by microdilution method; settings: BFA48
[8] = system: Staphylococcus aureus; assay: Antimicrobial activity against Methicillin-resistant Staphylococcus aureus BFSA31 assessed as bacterial growth inhibition by microdilution method; settings: BFA31
[9] = system: Staphylococcus aureus; assay: Antimicrobial activity against Methicillin-resistant Staphylococcus aureus BFSA30 assessed as bacterial growth inhibition by microdilution method; settings: BFA30
[10] = system: Staphylococcus aureus; assay: Antimicrobial activity against Methicillin-resistant Staphylococcus aureus BFSA25 assessed as bacterial growth inhibition by microdilution method; settings: BFA25
[11] = system: Staphylococcus aureus; assay: Antimicrobial activity against Methicillin-resistant Staphylococcus aureus BFSA32 assessed as bacterial growth inhibition by microdilution method; settings: BFA32
[12] = system: Staphylococcus aureus; assay: Antimicrobial activity against Methicillin-resistant Staphylococcus aureus BFSA33 assessed as bacterial growth inhibition by microdilution method; settings: BFA33
[13] = system: Staphylococcus aureus; assay: Antimicrobial activity against Methicillin-resistant Staphylococcus aureus assessed as bacterial growth inhibition incubated for 24 hrs
[14] = system: Staphylococcus aureus; assay: Antibiofilm activity against Methicillin-resistant Staphylococcus aureus USA 300 relative to control
[15] = system: Staphylococcus aureus; assay: Antimicrobial activity against vancomycin intermediate-resistant Staphylococcus aureus assessed as bacterial growth inhibition incubated for 24 hrs by microdilution method
[16] = system: Staphylococcus aureus; assay: Antimicrobial activity against Methicillin-resistant Staphylococcus aureus ATCC 33599 assessed as bacterial growth inhibition
[17] = system: Staphylococcus aureus; assay: Antimicrobial activity against Methicillin-resistant Staphylococcus aureus assessed as bacterial growth inhibition
[18] = system: Staphylococcus aureus; assay: Antimicrobial activity against Methicillin-resistant Staphylococcus aureus CCARM 3506 assessed as bacterial growth inhibition incubated for 24 hrs by ELISA assay
[19] = system: Staphylococcus aureus; assay: Antimicrobial activity against Methicillin sensitive Staphylococcus aureus assessed as bacterial growth inhibition incubated for 18 hrs
[20] = system: Staphylococcus aureus; assay: Antimicrobial activity against Staphylococcus aureus MTCC 96 assessed as bacterial growth inhibition incubated for 24 to 48 hrs; settings: time 24-48 hrs
[21] = system: Staphylococcus aureus; assay: Antimicrobial activity against Staphylococcus aureus MTCC 442 assessed as bacterial growth inhibition incubated for 24 to 48 hrs; settings: time 24-48 hrs
[22] = system: Staphylococcus aureus; assay: Antimicrobial activity against Methicillin-resistant Staphylococcus aureus ATCC 43300 assessed as bacterial growth inhibition by microdilution method
[23] = system: Staphylococcus aureus; assay: Antimicrobial activity against Methicillin-sensitive Staphylococcus aureus ATCC 33591 assessed as bacterial growth inhibition by microbroth serial dilution method
[24] = system: Staphylococcus aureus; assay: Antimicrobial activity against Methicillin-sensitive Staphylococcus aureus ATCC 33591 assessed as bacterial growth inhibition incubated for 24 hrs
[25] = system: Staphylococcus aureus; assay: Antimicrobial activity against Methicillin-sensitive Staphylococcus aureus ATCC 43300 assessed as bacterial growth inhibition incubated for 24 hrs; settings: ATCC43300
[26] = system: Staphylococcus aureus; assay: Antimicrobial activity against Methicillin-sensitive Staphylococcus aureus ATCC 43300 assessed as bacterial growth inhibition by microbroth serial dilution method
[27] = system: Staphylococcus aureus; assay: Antimicrobial activity against Staphylococcus aureus 209 assessed as bacterial growth inhibition
[28] = system: Staphylococcus aureus; assay: Antimicrobial activity against Methicillin-resistant Staphylococcus aureus ATCC 43300 assessed as bacterial growth inhibition

SMILES: Fc1ccc(-c2nn(-c3ccccc3)cc2-c2nc3ccccn3c2Cc2ccccc2)cc1
MIC [1]: < 1 µg/mL
MIC [2]: 2.5 µg/mL (≈ 5.62 µM)
MIC [3]: < 1 µg/mL
MIC [4]: < 1 µg/mL
MIC [5]: < 1 µg/mL

SMILES: COc1cc(/C=C/c2cc(/C=C/c3ccc(OCC(=O)N[C@H](C)c4ccccc4)c(OC)c3)[nH]n2)ccc1OCC(=O)N[C@H](C)c1ccccc1
MIC [6]: 10 µM (≈ 6.87 µg/mL)

SMILES: CCCSC(=S)c1c(C)nn(-c2ccccc2)c1O
MIC [7]: 4 µg/mL
MIC [8]: 4 µg/mL
MIC [9]: 4 µg/mL
MIC [10]: 4 µg/mL
MIC [11]: 4 µg/mL
MIC [12]: 4 µg/mL

SMILES: Cc1nn(-c2ccccc2)c(Cl)c1/C=C/c1ccc([N+](=O)[O-])cc1[N+](=O)[O-]
MIC [13]: 25 µg/mL (≈ 65 µM)

SMILES: C/C(=N/NC1=NCCN1)c1cnn(-c2ccc(C#CC(C)(C)C)cc2)c1C
Activity [14]: 62%

SMILES: CN[C@H](CC(C)C)C(=O)N[C@H]1C(=O)N[C@@H](CC(N)=O)C(=O)N[C@H]2C(=O)N[C@H]3C(=O)N[C@H](C(=O)N[C@H](C(=O)O)c4cc(O)cc(O)c4-c4cc3ccc4O)[C@H](O)c3ccc(c(Cl)c3)Oc3cc2cc(c3O[C@@H]2O[C@H](CO)[C@@H](O)[C@H](O)[C@H]2O[C@H]2C[C@](C)(N)[C@H](O)[C@H](C)O2)Oc2ccc(cc2Cl)[C@H]1O [VANCOMYCIN]
MIC [15]: < 0.125 µg/mL
Activity [14]: 18%
MBC [16]: 6.25 µg/mL (≈ 4.31 µM)
MIC [16]: 3.12 µg/mL (≈ 2.16 µM)

SMILES: COc1cc(/C=C/c2cc(/C=C/c3ccc(OCC(=O)N[C@@H](C)c4ccccc4)c(OC)c3)[nH]n2)ccc1OCC(=O)N[C@@H](C)c1ccccc1
MIC [6]: 10 µM (≈ 6.87 µg/mL)

SMILES: O=C(O)c1cn(C2CC2)c2cc(N3CCNCC3)c(F)cc2c1=O [CIPROFLOXACIN]
MIC [1]: > 1.8 µg/mL
MIC [2]: 1.84 µg/mL (≈ 5.55 µM)
MBC [17]: 625 µg/mL (≈ 1890 µM)
MIC [3]: > 1.8 µg/mL
MIC [4]: > 1.8 µg/mL
MIC [5]: > 1.8 µg/mL

SMILES: COc1c(N2C[C@@H]3CCCN[C@@H]3C2)c(F)cc2c(=O)c(C(=O)O)cn(C3CC3)c12 [MOXIFLOXACIN]
MIC [18]: 1 µg/mL (≈ 2.49 µM)
MIC [19]: 0.06 µg/mL (≈ 0.149 µM)

SMILES: C[C@H]1COc2c(N3CCN(C)CC3)c(F)cc3c(=O)c(C(=O)O)cn1c23.C[C@H]1COc2c(N3CCN(C)CC3)c(F)cc3c(=O)c(C(=O)O)cn1c23.O [LEVOFLOXACIN]
MIC [19]: 0.125 µg/mL

SMILES: CC(=O)c1c(N2Cc3nn(C)c(N)c3C2)c(F)cc2c(=O)c(C(=O)O)cn(C3CC3)c12
MIC [19]: 0.125 µg/mL (≈ 0.294 µM)

SMILES: O=C(N[C@H](CO)[C@H](O)c1ccc([N+](=O)[O-])cc1)C(Cl)Cl [CHLORAMPHENICOL]
MIC [20]: 50 µg/mL (≈ 155 µM)
MIC [21]: 50 µg/mL (≈ 155 µM)
MIC [22]: 50 µg/mL

MIC [23]: 18.1 µM and 9 µM
MIC [26]: 9 µM
SMILES: CC(=O)c1nn(-c2ccc([N+](=O)[O-])cc2)cc1C(=O)c1cc2cc(CN3CCN(Cc4ccc5oc(C(=O)c6cn(-c7ccc([N+](=O)[O-])cc7)nc6C(C)=O)cc5c4)CC3)ccc2o1
MBC [24]: 36.2 µM (≈ 31.2 µg/mL)
MBC [25]: 18.1 µM (≈ 15.6 µg/mL)
MBC [26]: 36.2 µM

SMILES: C/C(=N/NC(=N)N)c1cnn(-c2ccc(C#Cc3ccccc3)cc2)c1C
Activity [14]: 20%

SMILES: COc1c(N2CCNC(C)C2)c(F)cc2c(=O)c(C(=O)O)cn(C3CC3)c12 (stereo not drawn) [GATIFLOXACIN]
MIC [19]: 0.06 µg/mL (≈ 0.16 µM)

MIC [23]: 2.6 µM
MIC ([23]; Staphylococcus aureus, ATCC 33591, read-out: MIC): 5.2 µM
MIC [26]: 2.6 µM
SMILES: CC(=O)NC[C@H]1CN(c2ccc(N3CCOCC3)c(F)c2)C(=O)O1 [LINEZOLID]
MBC [24]: 46.2 µM (≈ 15.6 µg/mL)
MBC [25]: 46.2 µM (≈ 15.6 µg/mL)
MBC [26]: 46.2 µM

MIC [27]: 200 µg/mL (≈ 1320 µM)
SMILES: COc1[nH]nc2nncnc12

MIC [27]: 50 µg/mL (≈ 303 µM)
SMILES: COc1nnc2nn(C)cnc1-2

SMILES: COc1ccc(-n2nc(C(C)(C)C)cc2NC(=O)c2cccc(Cl)c2)cc1
MIC [28]: 3.12 µg/mL (≈ 8.13 µM)

SMILES: Cc1onc(-c2ccccc2)c1C(=O)N[C@@H]1C(=O)N2[C@@H]1SC(C)(C)[C@@H]2C(=O)O [OXACILLIN]
MIC [7]: > 32 µg/mL
MIC [8]: > 32 µg/mL
MIC [9]: > 32 µg/mL
MIC [6]: 64 µM (≈ 25.7 µg/mL)
MIC [10]: > 32 µg/mL
MIC [11]: > 32 µg/mL
MIC [12]: > 32 µg/mL

SMILES: CC(C)(C)c1cc(NC(=O)c2cccc(F)c2)n(-c2ccc(Cl)cc2)n1
MIC [28]: 3.12 µg/mL (≈ 8.39 µM)

SMILES: CCCC#Cc1ccc(-n2ncc(/C(C)=N\NC(=N)N)c2C)cc1
Activity [14]: 74%

SMILES: COc1cc(/C=C/c2cc(/C=C/c3ccc(OCC(=O)NC45CC6CC(CC4C6)C5)c(OC)c3)[nH]n2)ccc1OCC(=O)NC12CC3CC(CC1C3)C2
MIC [6]: 10 µM (≈ 7.19 µg/mL)
